Laboratory results as given in patent US20210085676A1, “TREATMENT FOR AGE- AND OXIDATIVE STRESS-ASSOCIATED MUSCLE ATROPHY AND WEAKNESS” (Oklahoma Medical Research Foundation, priority 2018, published 2021).
“Also recorded” adds a separate entry of the source.

Tests used:
[1] = test system: SERCA; assay: SERCA Ca2+-dependent ATPase activity in gastrocnemius muscle homogenates of treated mice; assay type: in vivo, mouse; conditions: Sod1−/− mice, 50 mg/kg i.p. 3 times per week, 7 weeks
Description: Animals. The generation and characterization of the Sod1^−/− mice is described in detail elsewhere (3, 24). Female ≈2 months old C57BL/6J wild-type (WT; n=12-18) and Sod1^−/− mice (n=12-18) were divided into four groups and treated with either vehicle (10% DMSO, 10% Tween-80 in PBS) or CDN1163 (50 mg/kg) by intraperitoneal injection three times per week for 7 weeks. Care and management of the mice was executed according to The Guide for the Care and Use of Laboratory Animals and approved by the institutional Animal Care and Use Committee at the Oklahoma Medical Research Foundation (OKC, Okla., USA). SERCA activity. The measurement of SERCA activity was performed in the muscle homogenates at 37° C. using a spectrophotometric assay as previously described (26). CDN1163 rescues the SERCA activity in the Sod1^−/− mice. Ca^2+-dependent Ca^2+-ATPase activity was measured in gastrocnemius muscle homogenates to determine the effects of CDN1163 on SERCA function. […] Levels of SERCA1 and SERCA2 mRNA and protein were not changed in Sod1^−/− mice and were not altered by CDN1163 treatment (FIGS. 1C, 1D).

[2] = test system: Sod1−/− mice; assay: Body mass and gastrocnemius muscle mass in Sod1−/− mouse model of accelerated sarcopenia; assay type: in vivo; conditions: 50 mg/kg i.p. 3 times per week, 7 weeks
Description: Animals. The generation and characterization of the Sod1^−/− mice is described in detail elsewhere (3, 24). Female ≈2 months old C57BL/6J wild-type (WT; n=12-18) and Sod1^−/− mice (n=12-18) were divided into four groups and treated with either vehicle (10% DMSO, 10% Tween-80 in PBS) or CDN1163 (50 mg/kg) by intraperitoneal injection three times per week for 7 weeks. Care and management of the mice was executed according to The Guide for the Care and Use of Laboratory Animals and approved by the institutional Animal Care and Use Committee at the Oklahoma Medical Research Foundation (OKC, Okla., USA). CDN1163 prevents gastrocnemius muscle atrophy in the Sod1^−/− mice. […] At 2 months of age, neither absolute (FIG. 2B) nor normalized (FIG. 2C) gastrocnemius muscle mass is statistically lower in Sod1^−/− versus WT female mice. However, at the end of the 7 week period (˜4 months of age) there is a significant decrease in both absolute and normalized gastrocnemius muscle mass in the untreated Sod1^−/− mice compared to untreated WT mice (FIGS. 2B, 2C) consistent with the inventor's previous reports(3).

[3] = test system: EDL muscle of Sod1−/− mice; assay: Contractile measurements in isolated EDL muscle of treated Sod1−/− mice; assay type: in vivo, mouse
Description: Animals. The generation and characterization of the Sod1^−/− mice is described in detail elsewhere (3, 24). Female ≈2 months old C57BL/6J wild-type (WT; n=12-18) and Sod1^−/− mice (n=12-18) were divided into four groups and treated with either vehicle (10% DMSO, 10% Tween-80 in PBS) or CDN1163 (50 mg/kg) by intraperitoneal injection three times per week for 7 weeks. Care and management of the mice was executed according to The Guide for the Care and Use of Laboratory Animals and approved by the institutional Animal Care and Use Committee at the Oklahoma Medical Research Foundation (OKC, Okla., USA). Contractile Measurements. Contractile force generation was measured in isolated extensor digitorum longus (EDL) muscle using a 1200A in vitro test system (Aurora Scientific Inc.) as described elsewhere (7). Briefly, muscles were individually tied to a model 300C servomotor (Aurora Scientific Inc.) and fixed within a water bath containing an oxygenated (95% O2, 5% CO2) Krebs-Ringer solution (in mM: 137 NaCl, 5 KCl, 1 MgSO4, 1 NaH2PO4, 24 NaHCO3, 2 CaCl2) maintained at 32 C. Computer controlled stimulation was applied through a model 701C stimulator (Aurora Scientific Inc.). Force frequency curves were generated with stimulation frequencies between 1 and 300 Hz, while the fatigue protocol consisted of repeated 150 Hz stimuli, every 5 s for 400 s. All data were recorded and analyzed using commercial software (DMC and DMA, Aurora Scientific). Specific force (N/cm^2) was measured using muscle length and mass. Example 3. CDN1163 prevents contractile dysfunction in the Sod1^−/− mice. In agreement with the inventor's previous findings, the inventors measured a significant decline in the in-vitro specific force measured in EDL muscle of Sod1^−/− mice (˜19%, p<0.05) when compared to WT mice (FIG. 3A). […] On the other hand, CDN1163 has no effect on the time to peak contraction (TTP) and half relaxation time (RT1/2) in the EDL muscle during twitch contractions (FIGS. 3B, 3C).

[4] = test system: isolated mitochondria from the gastrocnemius muscle; assay: Mitochondrial H2O2 production (Amplex red-HRP) in isolated mitochondria from gastrocnemius muscle of treated mice; assay type: in vivo, mouse; conditions: Sod1−/− mice
Description: (§1) Animals. The generation and characterization of the Sod1^−/− mice is described in detail elsewhere (3, 24). Female ≈2 months old C57BL/6J wild-type (WT; n=12-18) and Sod1^−/− mice (n=12-18) were divided into four groups and treated with either vehicle (10% DMSO, 10% Tween-80 in PBS) or CDN1163 (50 mg/kg) by intraperitoneal injection three times per week for 7 weeks. Care and management of the mice was executed according to The Guide for the Care and Use of Laboratory Animals and approved by the institutional Animal Care and Use Committee at the Oklahoma Medical Research Foundation (OKC, Okla., USA).
Mitochondrial function. Mitochondrial isolation and assays for H2O2 generation were performed in gastrocnemius muscle as described previously by the inventor's laboratory (27). Freshly isolated mitochondria were used for H2O2 release assay using the Amplex red-HRP method. Isolated mitochondrial are exposed to respiratory substrates and HRP (1 U Ml-1) in the assay buffer catalyzes the H2O2-dependent oxidation of non-fluorescent Amplex Red (80 μM) (Molecular Probes, Eugene, Oreg., USA) to fluorescent resofurin red (excitation λ=544 nm, emission λ=590 nm at 37° C.). The slope of the increase in fluorescence was converted to the rate of H2O2 production with standard curve.
CDN1163 attenuates mitochondrial dysfunction in the Sod1^−/− mice. It is well documented that elevated levels of cytosolic Ca^2+ lead to increased mitochondrial ROS production (16). The inventors have previously shown that the mitochondria from the Sod1^−/− mice show structural and functional defects (4, 5). To test whether the activation of SERCA pump function improves mitochondrial function, the inventors measured mitochondrial ROS production as H2O2 emission using isolated mitochondria from the gastrocnemius muscle. […] CDN1163 treatment in the Sod1^−/− mice returns glutamate/malate stimulated H2O2 generation to WT levels (FIG. 4A).

[5] = test system: F2-isoprostanes in quadriceps muscle; assay: Oxidative damage by F2-isoprostane level in quadriceps muscle of treated mice; assay type: in vivo, mouse; conditions: Sod1−/− mice
Description: as §1, with “USA). Analysis of oxidative damage by F2-isoprostane level. The levels of F2-isoprostanes in quadriceps muscle were measured using thin layer chromatography and GC-mass spectrometry as described previously (25). CDN1163 reduces the oxidative damage in the Sod1^−/− mice. The inventors have previously reported increased oxidative damage in the skeletal muscles of Sod1^−/− mice (6) that might be contributing to muscle atrophy and weakness. […] Therefore the inventors investigated whether CDN1163 can prevent oxidative stress-induced damage by measuring the levels of F2-isoprostanes, an indicator of lipid peroxidation, in the quadriceps muscles.” for “USA).”

[6] = test system: old wildtype mice; assay: Aging study in old wildtype mice (24-26 months), 8-10 months treatment; assay type: in vivo, mouse
Text: The present inventors studied a group of old wildtype mice (24-26 months) with and without 8-10 months treatment with CDN1163. […] Further, the old mice show significant atrophy of the gastrocnemius muscles when compared to baseline group (≈10%, p<0.05). […] The inventors also measured the muscle force generating capacity in the mouse EDL muscles because of large body of literature showing reduced strength of extensor digitorum longus (EDL) muscle with aging. EDL muscle weakness in the old wild-type mice (≈11%, p<0.05) was consistent with previous studies, when compared to the baseline group. […] This effect was consistent at stimulation frequencies for maximal and sub-maximal (≈50% of maximal force) tetanic forces normalized for muscle mass. […] As such, CDN1163 was able to reduce muscle weakness, while not having side-effects related to muscle half relaxation time and time to maximal twitch force.

[7] = test system: ob/ob mouse model; conditions: reference 17; cited from earlier work
[8] = EDL muscle, twitch contractions, 7 weeks treatment
[9] = 50 mg/kg i.p. 3 times per week, 7 weeks
[10] = old wildtype mice 24-26 months, versus 16 month old baseline

In the case of `Cc1ccc2cccc(NC(=O)c3ccc(OC(C)C)cc3)c2n1` [CDN1163, 4-(1-Methylethoxy)-N-(2-methyl-8-quinolinyl)-benzamide], the “Maximum Ca2+ dependent SERCA (SR Ca2+-ATPase) activity” value [1] is reported as “completely restored”, the “Increase in (normalized) gastrocnemius muscle mass versus untreated Sod1−/− mice” value ([2]; Sod1−/− mice) is reported as 23% and the “Gastrocnemius muscle mass / atrophy” value ([2]; Sod1−/− mice, 50 mg/kg) is reported as “restores; also recorded: completely prevented this atrophy”. For the same compound, the “Body weight (body mass)” value ([2]; WT or Sod1−/− mice, 50 mg/kg) was “did not alter”, the “Half relaxation time (RT1/2)” value [3, 8] was “without affecting; also recorded: no effect” and the “Time to twitch peak tension / time to peak contraction (TTP)” value [3, 8] was “without affecting; also recorded: no effect”. For the same compound, the “Specific force of EDL muscle” value ([3]; Sod1−/− mice, 50 mg/kg i.p. 3 times per week, 7 weeks, measured in vitro, 50 mg/kg) was “completely restored”, the “Mitochondrial ROS generation” value [4, 9] was “reversed” and the “Mitochondrial H2O2 production, glutamate/malate stimulated (state-2, complex 1-linked)” value ([4]; 7 weeks treatment) was “reduces; also recorded: to WT levels”. For the same compound, the “Mitochondrial H2O2 production, State-1 respiration” value ([4]; without external substrate, 7 weeks treatment) was “reduces; also recorded: do not show elevated levels”, the “Reduction of oxidative damage in muscle tissue measured as F2-isoprostanes” value [5, 9] was 50% and the “F2-isoprostanes levels (lipid peroxidation)” value ([5]; quadriceps muscle, 7 weeks treatment) was “reduces; also recorded: prevented this increase”. For the same compound, the “Muscle half relaxation time” value ([6]; old wildtype mice) was “no significant effects”, the “Time to maximal twitch force” value ([6]; old wildtype mice) was “no significant effects” and the “Age-related atrophy of the gastrocnemius muscles” value [6, 10] was “completely prevented”. For the same compound, the “Age-related reduction in body weight” value [6, 10] was “did not prevent”, the “Age-related decline in EDL muscle force” value ([6]; old wildtype mice, maximal and sub-maximal tetanic forces normalized for muscle mass) was “prevented this decline in force” and the “Plasma levels of malondialdehyde (marker of oxidative stress)” value [7] was “reduce”.
